# Measured values: ChEMBL document CHEMBL1671719, “Inhibition of antibiotic-resistant Staphylococcus aureus by the broad-spectrum dihydrofolate reductase inhibitor RAB1” (Antimicrob Agents Chemother, 2010)
# Values joined by “and” are separate entries in the source; they are usually repeats but may differ in a detail not shown here. Equal entries are not always repeated.
# Columns and labels:
# Staphylococcus aureus [1] = experiment: Ratio of Ki for TMP-resistant Staphylococcus aureus DHFR to Ki for wild type Staphylococcus aureus DHFR
# Dihydrofolate reductase [2] = molecular target: Dihydrofolate reductase (Staphylococcus aureus, UniProt P0A017); experiment: Inhibition of Staphylococcus aureus wild type recombinant DHFR by MTS assay
# Dihydrofolate reductase [3] = molecular target: Dihydrofolate reductase (Staphylococcus aureus, UniProt P0A017, F99Y); experiment: Inhibition of Staphylococcus aureus DHFR F98Y mutant by MTS assay
# Staphylococcus aureus [4] = experiment: Antimicrobial activity against methicillin-resistant Staphylococcus aureus; assay type: functional
# Francisella tularensis = experiment: Antimicrobial activity against Francisella tularensis Schu4 by broth microdilution method; assay type: functional
# Staphylococcus aureus [5] = experiment: Antimicrobial activity against vancomycin-resistant Staphylococcus aureus VRS2 by broth microdilution method; assay type: functional
# Staphylococcus aureus [6] = experiment: Antimicrobial activity against methicillin-resistant Staphylococcus aureus isolate NRS70 by broth microdilution method; assay type: functional
# Yersinia pestis = experiment: Antimicrobial activity against Yersinia pestis CO92 by broth microdilution method; assay type: functional
# Staphylococcus aureus [7] = experiment: microbe, parasite or virus in culture; settings: isolate NRS71
# Brucella abortus = experiment: Antimicrobial activity against Brucella abortus 2308 by broth microdilution method; assay type: functional
# Enterococcus faecalis = experiment: Antimicrobial activity against vancomycin-resistant Enterococcus faecalis ATCC 700802 by broth microdilution method; assay type: functional
# Staphylococcus aureus [8] = experiment: microbe, parasite or virus in culture; settings: isolate NRS123
# Staphylococcus aureus [9] = experiment: Antimicrobial activity against vancomycin-resistant Staphylococcus aureus VRS3 by broth microdilution method; assay type: functional
# Staphylococcus aureus [10] = experiment: Antimicrobial activity against methicillin-resistant Staphylococcus aureus isolate NRS1 by broth microdilution method; assay type: functional
# Staphylococcus aureus [11] = experiment: Antimicrobial activity against vancomycin-resistant Staphylococcus aureus VRS1 by broth microdilution method; assay type: functional
# Bacillus anthracis = experiment: Antimicrobial activity against Bacillus anthracis Ames by broth microdilution method; assay type: functional
Compound,MIC (Staphylococcus aureus [5]),MIC (Staphylococcus aureus [6]),MIC (Staphylococcus aureus [7]),MIC (Staphylococcus aureus [8]),MIC (Staphylococcus aureus [9]),MIC (Staphylococcus aureus [10]),MIC (Staphylococcus aureus [11]),further results
CCC[C@H]1c2ccccc2C=NN1C(=O)/C=C/c1cc(Cc2cnc(N)nc2N)cc(OC)c1OC,–,–,–,–,–,–,–,Ratio IC50 (Staphylococcus aureus [1]): 0.6; Ratio Ki (Staphylococcus aureus [1]): 0.2; IC50 (Dihydrofolate reductase [2]): 2.9 nM and 12.5 nM; Ki (Dihydrofolate reductase [2]): 0.9 nM; Ki (Dihydrofolate reductase [3]): 0.2 nM
COc1cc(Cc2cnc(N)nc2N)c2c(c1OC)OC(C1CC1)C=C2 (centres undefined),–,–,–,–,–,–,–,MIC (Staphylococcus aureus [4]): ≤ 0.06 µg/mL
COc1ncc([C@H]2c3ccccc3C=NN2C(=O)/C=C/c2cc(Cc3cnc(N)nc3N)cc(OC)c2OC)cn1,–,–,–,–,–,–,–,Ratio IC50 (Staphylococcus aureus [1]): 5.7; Ratio Ki (Staphylococcus aureus [1]): 1.9; IC50 (Dihydrofolate reductase [2]): 11.5 nM and 3.9 nM; Ki (Dihydrofolate reductase [2]): 3.5 nM; IC50 (Dihydrofolate reductase [3]): 65.4 nM; Ki (Dihydrofolate reductase [3]): 6.5 nM
COc1cc(-c2ccccc2)cc([C@@H](C)C#Cc2c(C)nc(N)nc2N)c1,–,–,–,–,–,–,–,IC50 (Dihydrofolate reductase [2]): 61 nM; IC50 (Dihydrofolate reductase [3]): 190 nM
CCCC1c2ccccc2C=NN1C(=O)/C=C/c1cc(Cc2cnc(N)nc2N)cc(O)c1OC (centres undefined),4 µg/mL,≤ 0.0625 µg/mL,≤ 0.0625 µg/mL,≤ 0.0625 µg/mL,≤ 0.125 µg/mL,≤ 0.0625 µg/mL,8 µg/mL,MIC (Francisella tularensis): 1 µg/mL; Ratio IC50 (Staphylococcus aureus [1]): 0.9; Ratio Ki (Staphylococcus aureus [1]): 0.3; MIC (Yersinia pestis): 4 µg/mL; MIC (Brucella abortus): 16 µg/mL; IC50 (Dihydrofolate reductase [2]): 9.4 nM and 5.2 nM; Ki (Dihydrofolate reductase [2]): 2.8 nM; MIC (Enterococcus faecalis): 0.03 µg/mL; IC50 (Dihydrofolate reductase [3]): 8.8 nM and 22.6 nM; Ki (Dihydrofolate reductase [3]): 0.9 nM; MIC (Bacillus anthracis): 1 µg/mL
COc1cc([C@H](C)C#Cc2c(C)nc(N)nc2N)ccc1-c1c(C)cccc1C,–,–,–,–,–,–,–,IC50 (Dihydrofolate reductase [2]): 61 nM; IC50 (Dihydrofolate reductase [3]): 190 nM
O=C(O)c1cn(C2CC2)c2cc(N3CCNCC3)c(F)cc2c1=O [CIPROFLOXACIN],> 16 µg/mL,0.5 µg/mL,> 16 µg/mL,0.5 µg/mL,> 16 µg/mL,–,> 16 µg/mL,–
CCC[C@@H]1C[C@@H](C(=O)N[C@@H]([C@H]2O[C@H](SC)[C@H](O)[C@@H](O)[C@H]2O)[C@H](C)Cl)N(C)C1 [CLINDAMYCIN],> 4 µg/mL,> 4 µg/mL,> 4 µg/mL,0.12 µg/mL,> 4 µg/mL,–,> 4 µg/mL,–
Nc1ccnc(N)n1 [DIAMINOPYRIMIDINE],–,–,–,0.5 µg/mL,–,2 µg/mL,–,–
CC[C@H]1OC(=O)[C@H](C)[C@@H](O[C@H]2C[C@@](C)(OC)[C@@H](O)[C@H](C)O2)[C@H](C)[C@@H](O[C@@H]2O[C@H](C)C[C@H](N(C)C)[C@H]2O)[C@](C)(O)C[C@@H](C)C(=O)[C@H](C)[C@@H](O)[C@]1(C)O [ERYTHROMYCIN],> 8 µg/mL,> 8 µg/mL,> 8 µg/mL,0.5 µg/mL,> 8 µg/mL,–,> 8 µg/mL,–
CC(=O)NC[C@H]1CN(c2ccc(N3CCOCC3)c(F)c2)C(=O)O1 [LINEZOLID],1 µg/mL,1 µg/mL,1 µg/mL,–,–,–,–,–
Cc1onc(-c2ccccc2)c1C(=O)N[C@@H]1C(=O)N2[C@@H]1SC(C)(C)[C@@H]2C(=O)O [OXACILLIN],> 16 µg/mL,> 16 µg/mL,> 16 µg/mL,> 16 µg/mL,> 16 µg/mL,> 32 µg/mL,> 16 µg/mL,–
CC1(C)S[C@@H]2[C@H](NC(=O)Cc3ccccc3)C(=O)N2[C@H]1C(=O)O [PENICILLIN G],> 2 µg/mL,> 2 µg/mL,> 2 µg/mL,> 2 µg/mL,> 2 µg/mL,> 8 µg/mL,> 2 µg/mL,–
CN(C)[C@@H]1C(O)=C(C(N)=O)C(=O)[C@@]2(O)C(O)=C3C(=O)c4c(O)cccc4[C@@](C)(O)[C@H]3C[C@@H]12 [TETRACYCLINE],–,–,–,32 µg/mL,–,32 µg/mL,–,–
COc1cc(Cc2cnc(N)nc2N)cc(OC)c1OC [TRIMETHOPRIM],> 256 µg/mL,2 µg/mL,2 µg/mL,2 µg/mL,2 µg/mL,2 µg/mL,> 256 µg/mL,MIC (Francisella tularensis): 16 µg/mL; MIC (Yersinia pestis): ≤ 1 µg/mL; MIC (Brucella abortus): 32 µg/mL; MIC (Enterococcus faecalis): ≤ 1 µg/mL; MIC (Bacillus anthracis): > 256 µg/mL
CN[C@H](CC(C)C)C(=O)N[C@H]1C(=O)N[C@@H](CC(N)=O)C(=O)N[C@H]2C(=O)N[C@H]3C(=O)N[C@H](C(=O)N[C@H](C(=O)O)c4cc(O)cc(O)c4-c4cc3ccc4O)[C@H](O)c3ccc(c(Cl)c3)Oc3cc2cc(c3O[C@@H]2O[C@H](CO)[C@@H](O)[C@H](O)[C@H]2O[C@H]2C[C@](C)(N)[C@H](O)[C@H](C)O2)Oc2ccc(cc2Cl)[C@H]1O [VANCOMYCIN],64 µg/mL,–,–,–,> 32 µg/mL,8 µg/mL,> 256 µg/mL,–
GENTAMICIN,> 16 µg/mL,1 µg/mL,–,–,> 16 µg/mL,> 16 µg/mL,> 16 µg/mL,–
